Data reported in patent US12178867B2, “MHC class i associated peptides for prevention and treatment of multiple flavi virus” (priority 2018, dated 2024).

Tests used:
[1] = system: peptide loaded HepG2 cells; assay: CTL assay: peptide-stimulated PBMCs of naive HLA-A24+ donor co-cultured with peptide loaded HepG2 cells, flow cytometry (FIG. 4); type: cell-based, human; settings: blank HepG2 cells as control
Protocol: FIG. 4: Utilizing a healthy (naive) human HLA-A24+ donor, peripheral blood mononuclear cells (PBMCs) were stimulated with peptide epitopes in a cytokine cocktail to induce antigen specific CTL response. These stimulated PBMCs were then assayed by co-culturing peptide loaded targets for antigen specific response. Hep2G cells were used for peptide loading, and blank Hep2G cells used as control. Also used was HepG2 cells infected with Dengue (DV2) and Zika. Expanded PBMCs were assayed for both CD8/IFNg double expression by flow cytometry. All 4 peptide epitopes induced CD8+ IFNg expression to peptide loaded HepG2 cells in a peptide specific manner. […] FIG. 5: Transgenic A2 mice were immunized with 200 ng of NP-Dengue peptides. The spleen cells were isolated and then exposed to either Zika or Dengue infected cells. […] Acid stripping of the peptides makes the cells non-response.
In a further experiment, utilizing a healthy (naive) human HLA-A24+ donor, peripheral blood mononuclear cells (PBMCs) were stimulated with peptide epitopes in a cytokine cocktail to induce antigen specific CTL response. These stimulated PBMCs were then assayed by co-culturing peptide loaded targets for antigen specific response (FIG. 4). Hep2G cells were used for peptide loading, and blank Hep2G cells used as control. Also used was HepG2 cells infected with Dengue (DV2) and Zika. […]

peptide loaded T2 cells = assay: CTL assay: peptide-stimulated PBMCs of naive HLA-A2+ donor co-cultured with peptide loaded T2 cells, flow cytometry (FIG. 3A); type: cell-based, human
Protocol: FIGS. 3A and 3B: (FIG. 3A) Utilizing a healthy (naive) human HLA-A2+ donor, peripheral blood mononuclear cells (PBMCs) were stimulated with peptide epitopes in a cytokine cocktail to induce antigen specific CTL response. These stimulated PBMCs were then assayed by co-culturing peptide loaded targets for antigen specific response. TAP-deficient cells (T2) were used for peptide loading, and blank T2 cells used as control. Expanded PBMCs were assayed for both CD107a degranulation and interferon gamma (IFN-g) markers by flow cytometry. All 6 peptide epitopes induced CD8+ CD107a and IFNg expression to peptide loaded T2 cells in a peptide specific manner. […] (FIG. 3B) Utilizing a healthy (naive) human HLA-A2+ donor, peripheral blood mononuclear cells (PBMCs) were stimulated with peptide epitopes in a cytokine cocktail to induce antigen specific CTL response. These stimulated PBMCs were then assayed by co-culturing with Hep2G infected cells (DV2/Zika). Uninfected HepG2 cells were used as control. Expanded PBMCs were assayed for both CD107a degranulation and interferon gamma (IFN-g) markers by flow cytometry.
In one experiment, utilizing a healthy (naive) human HLA-A2+ donor, peripheral blood mononuclear cells (PBMCs) were stimulated with peptide epitopes in a cytokine cocktail to induce antigen specific CTL response. […]

## PMAAVGLLIVS (listed as Dengue virus) [SEQ ID NO: 2]
[1]
  CD8+ IFNg expression to peptide loaded HepG2 cells: particular pronounced IFNg+ effect
Peptide loaded T2 cells
  IFNg+ effect: particular pronounced IFNg+ effect
